Row | SMILES | melting point [°C]
1 | Cc1ccnc(C(=O)c2[nH]c3cc(Cl)ccc3c2NC(=O)C(C)(C)O)c1 | 217 to 219
2 | O=C(O)COc1cc(Cl)ccc1C(=O)NCc1ccc(Cl)cc1 | 184 to 186
3 | CCOC(=O)c1ccc(Nc2cc(C)nc3cn[nH]c23)cc1 | 247 to 250
4 | CC(C)N(c1nc(N)nc(-c2cc(Cl)ccc2Cl)n1)C(C)C | 158 to 159
5 | Cc1ccc2nc(-c3cc(C(F)F)nn3-c3ccc(S(C)(=O)=O)cc3)sc2c1 | 183 to 184
6 | Brc1ccc2c(c1Cc1cccc3cnccc13)OCO2 | 194 to 197
7 | Fc1cc(F)c(-c2cncn2-c2ccc(Cl)cc2)c(F)c1 | 170 to 172
8 | O=c1c2cnc3ccc(C(F)(F)F)cc3c2on1-c1ccccc1 | 175
9 | CSC1=NC2=NC3=C(CSCC3=O)CN2N1 | 295 to 297
10 | O=Cc1ccc(C2=NOC(c3cc(Cl)cc(Cl)c3)(C(F)(F)F)C2)cc1Cl (stereo not given) | 129 to 130
11 | O=C1C=Cc2cc3c(cc2=C1)C=C(S(=O)(=O)NCCN1CCOCC1)C(=O)C=3S(=O)(=O)NCCN1CCOCC1 | 230 to 233
12 | COc1ccc(C2(Cl)CC(CNC(C)(C)C)=Nc3sc4c(c32)CCNC4)cc1OC (stereo not given) | 162 to 163
13 | CC(C(=O)Nc1ccc(C(=O)c2cccs2)cc1)c1ccccc1 (stereo not given) | 140
14 | O=C(NCCN1CCOCC1)c1ccc2nonc2c1 | 145 to 148
15 | Cc1ccc(C(=O)C2=C(O)C(=O)N(c3ncc(S(C)(=O)=O)s3)C2c2ccc(C(C)C)cc2)cc1 (stereo not given) | 269 to 271
16 | C=C1c2ccccc2CC(=O)c2ccccc21 | 84 to 86
17 | O=C(O)COC1=C(Cc2ccc3c(Cl)cccc3c2)C(=O)CC1 | 156 to 158
18 | COc1ccc(-c2cc(C)c(N)c(C=O)c2)cn1 | 81 to 84
19 | CCCn1c(=O)c2ccc(NC(=O)CC3CCCC3)cc2n1Cc1ccc(C(=O)OC)cc1OC | 74.5 to 77
20 | COc1ccc(-c2ccc(C)c3occc23)cc1 | 40 to 41
21 | COc1cc(OC)c2c(=O)[nH]c(-c3cc(C)c(OCC(=O)O)c(C)c3)nc2c1 | 270 to 272
22 | N#CN1CCC(c2n[nH]c3cc(Cl)ccc23)CC1 | 180 to 188
23 | O=C1CC2Sc3nc(=O)c4ccccc4n3C2(c2ccc(Cl)cc2)O1 (stereo not given) | 215 to 220
24 | O=C(O)C(=O)CC(=O)c1cccn1Cc1cc(F)c(F)cc1F | 154 to 156
25 | Clc1cccc(Cl)c1CSCc1c(Cl)cccc1Cl | 128 to 130

Row | SMILES | melting point [°C]
26 | O=C1CN2CCOC2(c2ccccc2F)c2cc(Cl)ccc2N1 (stereo not given) | 183 to 184
27 | Oc1ccc(C=C2c3ccccc3CCc3ccccc32)cc1O | 138
28 | CCOC(=O)c1c(C)nc(-c2ccccc2)nc1-c1cccc(C(F)(F)F)c1 | 59 to 60
29 | CCOC(=O)c1cc(C(=O)OC)c(=O)oc1C | 94 to 96
30 | COCOc1ccc(C(=O)O)c(OCc2ccc(Cl)cc2Cl)c1C | 174
31 | C#CCN1CCN(C2=Nc3cc(Cl)ccc3Nc3ccccc32)CC1 | 138 to 140
32 | CCN(CC)CCNC(=O)COc1cccc(-n2nc(-c3ccc(F)cc3)c3cccnc32)c1 | 137 to 138
33 | Cc1c(CCc2ccc3[nH]c(N)nc3c2)ncn1C(c1ccccc1)(c1ccccc1)c1ccccc1 | 161 to 164
34 | O=C(O)CCCOc1ccccc1OCCC(c1ccccc1)(c1ccccc1)c1ccccc1 | 107 to 108
35 | CCNc1nc(OC)c(C(=O)NCC2CCCN2C2CCCCC2)nc1Cl (stereo not given) | 164 to 165
36 | CCOC(=O)C(O)c1cc(F)cc2cccnc12 (stereo not given) | 84 to 87
37 | CCOC(=O)c1ccc(NS(C)(=O)=O)c([N+](=O)[O-])c1 | 124
38 | CNc1nc2ccc(OC(F)(F)F)cc2s1 | 162
39 | O=C(O)c1ccc(OCCCON=Cc2cc3ccccc3n2Cc2ccccc2)c(-c2ccc(C(F)(F)F)cc2)c1 | 196 to 197
40 | COc1ccc(-c2nc3c(O)cccc3s2)cc1 | 128 to 130
41 | O=c1oc(-c2ccccc2)cc(O)c1SCCOc1ccccc1 | 146 to 149
42 | O=C(Nc1ccccn1)Nc1nc(-c2ccccc2)cs1 | 247 to 249
43 | O=C(O)Cn1c(=O)n(Cc2ccc(Br)cc2F)c(=O)c2ccc(Br)cc21 | 217
44 | COC(=O)CSc1nc(Sc2ccc(Cl)cc2)ncc1[N+](=O)[O-] | 157 to 159
45 | CCOC(=O)c1c(Cn2cnnc2)nc2cc(OC)c(OC)cc2c1-c1ccc(OC)cc1 | 218 to 219
46 | Cc1ccc(C)c(OCCO)c1 | 45 to 48
47 | COC(=O)[C@H](Cc1ccc(OCC2CCCN(C(=O)OC(C)(C)C)C2)cc1)NC(=O)[C@@H]1CCCN1S(=O)(=O)c1ccc(C)cc1 (stereo not given in full) | 82 to 84
48 | CC1Cc2ccc(Cl)cc2CN(CCO)C1=O (stereo not given) | 139 to 140
49 | O=C1C=C(O)CC(CCc2ccc(O)cc2)(C2CCCCC2)O1 (stereo not given) | 52 to 58
50 | O=C(O)Cc1ccc(-c2nc3cccc(Cl)c3o2)cc1 | 205 to 210
